The target in this experiment is T1, IRAK4 (Homo sapiens, UniProt Q9NWZ3).
T1 construct: Degradation of IRAK4 in OCI-LY10 was quantitatively measured using Meso Scale Discovery technology; endogenous in cells; host or cells: OCI-LY10
T1 sequence (Q9NWZ3 1-460): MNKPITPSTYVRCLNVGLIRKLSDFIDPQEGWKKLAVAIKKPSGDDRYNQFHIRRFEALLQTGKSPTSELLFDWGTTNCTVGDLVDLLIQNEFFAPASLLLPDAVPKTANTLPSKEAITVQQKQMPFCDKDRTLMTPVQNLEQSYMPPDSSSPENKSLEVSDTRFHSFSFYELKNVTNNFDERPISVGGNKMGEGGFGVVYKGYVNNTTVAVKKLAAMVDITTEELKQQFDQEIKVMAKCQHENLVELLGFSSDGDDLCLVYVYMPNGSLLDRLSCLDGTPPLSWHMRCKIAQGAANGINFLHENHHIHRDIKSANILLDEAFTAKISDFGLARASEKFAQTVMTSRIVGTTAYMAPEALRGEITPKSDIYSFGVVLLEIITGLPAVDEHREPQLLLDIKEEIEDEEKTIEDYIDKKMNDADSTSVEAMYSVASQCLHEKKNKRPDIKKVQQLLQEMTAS
Briefly: IRAK4 MSD Degradation in OCI-LY10. Type of experiment: cell-based. As to conditions: OCI-LY10 cells, MSD. The gist of the method:
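OCI-LY10 cells exposed to 8-point 1:3 compound series (top 1 to 10 μM) for 4 to 24 h at 37 °C, 5% CO2. Lysate IRAK4 quantified by MSD sandwich immunoassay. DC50 from three-parameter logistic fit, binned A (<0.01 μM) to D (>0.2 μM or not tested).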

Setting [1] is: 4 hrs incubation, read-out: IRAK4 degradation in OCI-LY10 at 4 hrs: DC50.
[2] abbreviates: 24 hrs incubation, read-out: IRAK4 degradation in OCI-LY10 at 24 hrs: DC50.

Structures are written as SMILES. Where two headings read alike, the source gives them in different places. Some results are limits rather than exact numbers.

The term DC50 denotes the concentration at which degradation of the target reaches its halfway point. On to `COc1cc2nn([C@H]3CC[C@H](CN4CCC5(CC4)CCN(c4cccc6c4n(C)c(=O)n6C4CCC(=O)NC4=O)CC5)CC3)cc2cc1NC(=O)c1cncc(SC(F)(F)F)c1` (stereo partly drawn) [I-152], for which the DC50 by setting is: under setting [1], more than 200 nM; under setting [2], more than 200 nM.

On to `COc1cc2nn([C@H]3CC[C@H](CN4CCC5(CC4)CCN(c4cccc6c4n(C)c(=O)n6C4CCC(=O)NC4=O)CC5)CC3)cc2cc1NC(=O)c1cncc([S+]([O-])C(F)(F)F)c1` (stereo partly drawn) [I-153], for which the DC50 runs as follows: under setting [1], more than 200 nM; under setting [2], more than 200 nM.

On to `COc1cc2nn([C@H]3CC[C@H](CN4CCC5(CC4)CCN(c4cccc6c4n(C)c(=O)n6C4CCC(=O)NC4=O)CC5)CC3)cc2cc1NC(=O)c1cncc(S(=O)(=O)C(F)(F)F)c1` (stereo partly drawn) [I-154], for which the DC50 runs as follows: under setting [1], more than 200 nM; under setting [2], more than 200 nM.

As for `COc1cc2nn([C@H]3CC[C@H](CN4CCC5(CC4)CCN(c4cccc6c4n(C)c(=O)n6C4CCC(=O)NC4=O)CC5)CC3)cc2cc1NC(=O)c1cncc(C(F)(F)F)n1` (stereo partly drawn) [I-155], the DC50 runs as follows: under setting [1], less than 10 nM; under setting [2], more than 200 nM.

Consider `COc1cc2nn([C@H]3CC[C@H](CN4CCC5(CC4)CCN(c4cccc6c4n(C)c(=O)n6C4CCC(=O)NC4=O)CC5)CC3)cc2cc1NC(=O)c1cncc(C#N)c1` (stereo partly drawn) [I-156], for which the DC50 is more than 200 nM under setting [1] and 10 to 100 nM under setting [2].

Take `COc1cc2nn([C@H]3CC[C@H](CN4CCC5(CC4)CCN(c4cccc6c4n(C)c(=O)n6C4CCC(=O)NC4=O)CC5)CC3)cc2cc1NC(=O)c1nn(C)cc1Cl` (stereo partly drawn) [I-157]: the 50% degradation concentration (DC50) reads like this: under setting [1], less than 10 nM; under setting [2], more than 200 nM.

Turning to `Cn1c(=O)n(C2CCC(=O)NC2=O)c2cccc(N3CCC(CN4CCN(C[C@H]5CC[C@H](n6cc(NC(=O)c7cnn8ccc(N9C[C@@H]%10C[C@H]9CO%10)nc78)c(C(F)F)n6)CC5)CC4)CC3)c21` (stereo partly drawn) [I-158], the DC50 was less than 10 nM under setting [1] and more than 200 nM under setting [2].

Take `Cn1c(=O)n(C2CCC(=O)NC2=O)c2cccc(N3CCC(OC4CCN(C[C@H]5CC[C@H](n6cc(NC(=O)c7cnn8ccc(N9C[C@@H]%10C[C@H]9CO%10)nc78)c(C(F)F)n6)CC5)CC4)CC3)c21` (stereo partly drawn) [I-159]: the DC50 runs as follows: under setting [1], less than 10 nM; under setting [2], more than 200 nM.

Consider `Cn1c(=O)n(C2CCC(=O)NC2=O)c2cccc(C#CCCC3CCN(CC4CCC(n5cc(NC(=O)c6cnn7ccc(C8C[C@H]9C[C@@H]8CO9)nc67)c(C(F)F)n5)CC4)CC3)c21` (stereo partly drawn) [I-160], for which the DC50 runs as follows: under setting [1], less than 10 nM; under setting [2], less than 10 nM.

`Cn1c(=O)n(C2CCC(=O)NC2=O)c2cccc(N3CCN(CC4CCN(C[C@H]5CC[C@H](n6cc(NC(=O)c7cnn8ccc(N9C[C@@H]%10C[C@H]9CO%10)nc78)c(C(F)F)n6)CC5)CC4)CC3)c21` (stereo partly drawn) [I-161]: the DC50 is less than 10 nM under setting [1] and more than 200 nM under setting [2].

Consider `Cn1c(=O)n(C2CCC(=O)NC2=O)c2cccc(C#CCCN3CCN(CC4CCC(n5cc(NC(=O)c6cnn7ccc(C8C[C@H]9C[C@@H]8CO9)nc67)c(C(F)F)n5)CC4)CC3)c21` (stereo partly drawn) [I-162], for which the DC50 is less than 10 nM under setting [1] and more than 200 nM under setting [2].

With `Cn1c(=O)n(C2CCC(=O)NC2=O)c2cccc(N3CCN(CC4CCN(C[C@H]5CC[C@H](n6cc(NC(=O)c7cnn8ccc(N9C[C@H]%10C[C@@H]9CO%10)nc78)c(C(F)F)n6)CC5)CC4)CC3)c21` (stereo partly drawn) [I-163], the DC50 under setting [1] was less than 10 nM and the DC50 under setting [2] was more than 200 nM.

Consider `Cn1c(=O)n(C2CCC(=O)NC2=O)c2cccc(N3CCC(CN4CCN(C[C@H]5CC[C@H](n6cc(NC(=O)c7cnn8ccc(N9C[C@H]%10C[C@@H]9CO%10)nc78)c(C(F)F)n6)CC5)CC4)CC3)c21` (stereo partly drawn) [I-164], for which the DC50 is, setting by setting: under setting [1], less than 10 nM; under setting [2], more than 200 nM.

For the compound `Cn1c(=O)n(C2CCC(=O)NC2=O)c2cccc(N3CCC(OC4CCN(C[C@H]5CC[C@H](n6cc(NC(=O)c7cnn8ccc(N9C[C@H]%10C[C@@H]9CO%10)nc78)c(C(F)F)n6)CC5)CC4)CC3)c21` (stereo partly drawn) [I-165], the DC50 reads like this: under setting [1], less than 10 nM; under setting [2], more than 200 nM.

Take `Cn1c(=O)n(C2CCC(=O)NC2=O)c2cccc(C#CCOC3CCN(C[C@H]4CC[C@H](n5cc(NC(=O)c6cnn7ccc(N8C[C@H]9C[C@@H]8CO9)nc67)c(C(F)(F)F)n5)CC4)CC3)c21` (stereo partly drawn) [I-166]: the DC50 is 10 to 100 nM under setting [1] and more than 200 nM under setting [2].

`Cn1c(=O)n(C2CCC(=O)NC2=O)c2cccc(C#CCOC3CCN(C[C@H]4CC[C@H](n5cc(NC(=O)c6cnn7ccc(N8C[C@H]9C[C@@H]8CO9)nc67)c(Cl)n5)CC4)CC3)c21` (stereo partly drawn) [I-167]: the DC50 runs as follows: under setting [1], more than 200 nM; under setting [2], 10 to 100 nM.

For the compound `Cc1nn([C@H]2CC[C@H](CN3CCC(OCC#Cc4cccc5c4n(C)c(=O)n5C4CCC(=O)NC4=O)CC3)CC2)cc1NC(=O)c1cnn2ccc(N3C[C@H]4C[C@@H]3CO4)nc12` (stereo partly drawn) [I-168], the DC50 is more than 200 nM under setting [1] and more than 200 nM under setting [2].

Consider `COc1nn([C@H]2CC[C@H](CN3CCC(OCC#Cc4cccc5c4n(C)c(=O)n5C4CCC(=O)NC4=O)CC3)CC2)cc1NC(=O)c1cnn2ccc(N3C[C@H]4C[C@@H]3CO4)nc12` (stereo partly drawn) [I-169], for which the DC50 is, setting by setting: under setting [1], more than 200 nM; under setting [2], more than 200 nM.

For the compound `Cc1ccc(-c2nn([C@H]3CC[C@H](CN4CCC(OCC#Cc5cccc6c5n(C)c(=O)n6C5CCC(=O)NC5=O)CC4)CC3)cc2NC(=O)c2cnn3cccnc23)nc1` (stereo partly drawn) [I-170], the DC50 under setting [1] is more than 200 nM and the DC50 under setting [2] is 10 to 100 nM.

Take `Cc1ccc(-c2nn([C@H]3CC[C@H](CN4CCC(OCC#Cc5cccc6c5n(C)c(=O)n6C5CCC(=O)NC5=O)CC4)CC3)cc2NC(=O)c2cnn3cccnc23)c(F)c1` (stereo partly drawn) [I-171]: the DC50 by setting is: under setting [1], more than 200 nM; under setting [2], 10 to 100 nM.

For `Cc1ccc(-c2nn([C@H]3CC[C@H](CN4CCC(OCC#Cc5cccc6c5n(C)c(=O)n6C5CCC(=O)NC5=O)CC4)CC3)cc2NC(=O)c2cnn3cccnc23)cc1` (stereo partly drawn) [I-172], the DC50 reads like this: under setting [1], more than 200 nM; under setting [2], 10 to 100 nM.

With `Cc1ccc(-c2nn([C@H]3CC[C@H](CN4CCC(OCC#Cc5cccc6c5n(C)c(=O)n6C5CCC(=O)NC5=O)CC4)CC3)cc2NC(=O)c2cnn3cccnc23)nc1` (stereo partly drawn) [I-173], the DC50 under setting [1] is more than 200 nM and the DC50 under setting [2] lay in the range of 10 to 100 nM.

For `Cn1c(=O)n(C2CCC(=O)NC2=O)c2cccc(C#CCOC3CCN(C[C@H]4CC[C@H](n5cc(NC(=O)c6cnn7ccc(N8C[C@H]9C[C@@H]8CO9)nc67)c(C(C)(C)O)n5)CC4)CC3)c21` (stereo partly drawn) [I-174], the DC50 is, setting by setting: under setting [1], more than 200 nM; under setting [2], more than 200 nM.

For `Cn1c(=O)n(C2CCC(=O)NC2=O)c2cccc(C#CCOC3CCN(C[C@H]4CC[C@H](c5ccc(C(F)F)c(NC(=O)c6cnn7ccc(N8C[C@H]9C[C@@H]8CO9)nc67)c5)CC4)CC3)c21` (stereo partly drawn) [I-175], the DC50 reads like this: under setting [1], more than 200 nM; under setting [2], more than 200 nM.

For `Cn1c(=O)n(C2CCC(=O)NC2=O)c2cccc(C#CCOC3CCN(CC4CCN(c5ccc(C(F)F)c(NC(=O)c6cnn7ccc(N8C[C@H]9C[C@@H]8CO9)nc67)c5)CC4)CC3)c21` (stereo partly drawn) [I-176], the half-maximal degradation concentration (DC50) under setting [1] is more than 200 nM and the DC50 under setting [2] is more than 200 nM.

In the case of `COc1ccc([C@H]2CC[C@H](CN3CCC(OCC#Cc4cccc5c4n(C)c(=O)n5C4CCC(=O)NC4=O)CC3)CC2)cc1NC(=O)c1cnn2ccc(N3C[C@H]4C[C@@H]3CO4)nc12` (stereo partly drawn) [I-177], the DC50 runs as follows: under setting [1], more than 200 nM; under setting [2], more than 200 nM.

As for `Cn1c(=O)n(C2CCC(=O)NC2=O)c2cccc(C#CCOC3CCN(C[C@H]4CC[C@H](c5cnc(C(F)F)c(NC(=O)c6cnn7ccc(N8C[C@H]9C[C@@H]8CO9)nc67)c5)CC4)CC3)c21` (stereo partly drawn) [I-178], the DC50 by setting is: under setting [1], more than 200 nM; under setting [2], more than 200 nM.

For the compound `Cn1c(=O)n(C2CCC(=O)NC2=O)c2cccc(C#CCOC3CCN(CC4CCN(c5cnc(C(F)F)c(NC(=O)c6cnn7ccc(N8C[C@H]9C[C@@H]8CO9)nc67)c5)CC4)CC3)c21` (stereo partly drawn) [I-179], the DC50 reads like this: under setting [1], more than 200 nM; under setting [2], more than 200 nM.

`COc1ncc([C@H]2CC[C@H](CN3CCC(OCC#Cc4cccc5c4n(C)c(=O)n5C4CCC(=O)NC4=O)CC3)CC2)cc1NC(=O)c1cnn2ccc(N3C[C@H]4C[C@@H]3CO4)nc12` (stereo partly drawn) [I-180]: the DC50 is more than 200 nM under setting [1] and more than 200 nM under setting [2].

Regarding `Cn1c(=O)n(C2CCC(=O)NC2=O)c2cccc(C#CCOC3CCN(C[C@H]4CC[C@H](c5ccc(NC(=O)c6cnn7ccc(N8C[C@H]9C[C@@H]8CO9)nc67)c(C(F)F)n5)CC4)CC3)c21` (stereo partly drawn) [I-181], the DC50 runs as follows: under setting [1], more than 200 nM; under setting [2], more than 200 nM.

For the compound `Cn1c(=O)n(C2CCC(=O)NC2=O)c2cccc(C#CCOC3CCN(C[C@H]4CC[C@H](c5ccc(NC(=O)c6cnn7ccc(N8C[C@H]9C[C@@H]8CO9)nc67)c(C(F)F)c5)CC4)CC3)c21` (stereo partly drawn) [I-182], the DC50 was more than 200 nM under setting [1] and more than 200 nM under setting [2].

For the compound `COc1nc([C@H]2CC[C@H](CN3CCC(OCC#Cc4cccc5c4n(C)c(=O)n5C4CCC(=O)NC4=O)CC3)CC2)ccc1NC(=O)c1cnn2ccc(N3C[C@H]4C[C@@H]3CO4)nc12` (stereo partly drawn) [I-183], the DC50 under setting [1] was more than 200 nM and the DC50 under setting [2] is more than 200 nM.

As for `COc1cc([C@H]2CC[C@H](CN3CCC(OCC#Cc4cccc5c4n(C)c(=O)n5C4CCC(=O)NC4=O)CC3)CC2)ccc1NC(=O)c1cnn2ccc(N3C[C@H]4C[C@@H]3CO4)nc12` (stereo partly drawn) [I-184], the DC50 was more than 200 nM under setting [1] and more than 200 nM under setting [2].

These data come from patent US12091411B2, “IRAK degraders and uses thereof” (Kymera Therapeutics, Inc., priority 2022, dated 2024).
